According to ChEMBL document CHEMBL1201862, “PubChem BioAssay data set” (2004):
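The compound was tested at five concentrations on cells cultured in 96-well plates, with a 48-hour exposure period. Here, GI50 denotes the concentration required for 50% inhibition of growth.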 The source made the active and inactive calls. Rule as the data show it: active = GI50 up to about 1.1 µM and inactive = higher.

Columns and labels:
Assay in all cases: NCI-60 cell line screen, 48 h
UACC-62 = test system: UACC-62
HCC 2998 = test system: HCC 2998
HCT-116 = test system: HCT-116
HOP-92 = test system: HOP-92
OVCAR-5 = test system: OVCAR-5
NCI-H226 = test system: NCI-H226
HOP-18 = test system: HOP-18
UACC-257 = test system: UACC-257
NCI-H23 = test system: NCI-H23
M14 = test system: M14
OVCAR-8 = test system: OVCAR-8
XF498 = test system: XF498
K562 = test system: K562
CCRF-CEM = test system: CCRF-CEM
ACHN = test system: ACHN
SF-539 = test system: SF-539
SK-MEL-28 = test system: SK-MEL-28
HOP-62 = test system: HOP-62
COLO 205 = test system: COLO 205
SNB-75 = test system: SNB-75
NCI-H522 = test system: NCI-H522
A549 = test system: A549
SF-268 = test system: SF-268
SK-OV-3 = test system: SK-OV-3
M19-MEL = test system: M19-MEL
HCT-15 = test system: HCT-15
MOLT-4 = test system: MOLT-4
786-0 = test system: 786-0
SF-295 = test system: SF-295
DMS-273 = test system: DMS-273
RXF 393 = test system: RXF 393
SK-MEL-5 = test system: SK-MEL-5
SK-MEL-2 = test system: SK-MEL-2
DMS-114 = test system: DMS-114
HT-29 = test system: HT-29
UO-31 = test system: UO-31
IGROV-1 = test system: IGROV-1
A498 = test system: A498
DLD-1 = test system: DLD-1
U-251 = test system: U-251
SW-620 = test system: SW-620
RXF 631 = test system: RXF 631
Malme-3M = test system: Malme-3M
SN12C = test system: SN12C
OVCAR-4 = test system: OVCAR-4
SNB-78 = test system: SNB-78
KM12 = test system: KM12
OVCAR-3 = test system: OVCAR-3
LOX IMVI = test system: LOX IMVI
LXFL 529 = test system: LXFL 529
SNB-19 = test system: SNB-19
EKVX = test system: EKVX
TK-10 = test system: TK-10
NCI-H460 = test system: NCI-H460
KM-20L2 = test system: KM-20L2
RPMI-8226 = test system: RPMI-8226
HL-60 = test system: HL-60
SR = test system: SR
CAKI-1 = test system: CAKI-1

C/C(=N/NC(=O)c1ccccc1O)c1ccc(/C(C)=N\NC(=O)c2ccccc2O)c2nc3cc(C)c(C)cc3nc12
GI50 (UACC-62): > 100 µM (inactive) | GI50 (HCC 2998): > 100 µM (inactive) | GI50 (HCT-116): > 100 µM (inactive) | GI50 (HOP-92): 54.7 µM (inactive) | GI50 (OVCAR-5): > 100 µM (inactive) | GI50 (NCI-H226): > 100 µM (inactive) | GI50 (HOP-18): 44.2 µM (inactive) | GI50 (UACC-257): > 100 µM (inactive) | GI50 (NCI-H23): > 100 µM (inactive) | GI50 (M14): > 100 µM (inactive) | GI50 (OVCAR-8): > 100 µM (inactive) | GI50 (XF498): > 100 µM (inactive) | GI50 (K562): > 100 µM (inactive) | GI50 (CCRF-CEM): > 100 µM (inactive) | GI50 (ACHN): > 100 µM (inactive) | GI50 (SF-539): > 100 µM (inactive) | GI50 (SK-MEL-28): > 100 µM (inactive) | GI50 (HOP-62): > 100 µM (inactive) | GI50 (COLO 205): > 100 µM (inactive) | GI50 (SNB-75): 38.7 µM (inactive) | GI50 (NCI-H522): > 100 µM (inactive) | GI50 (A549): > 100 µM (inactive) | GI50 (SF-268): > 100 µM (inactive) | GI50 (SK-OV-3): > 100 µM (inactive) | GI50 (M19-MEL): > 100 µM (inactive) | GI50 (HCT-15): > 100 µM | GI50 (MOLT-4): > 100 µM (inactive) | GI50 (786-0): > 100 µM (inactive) | GI50 (SF-295): > 100 µM (inactive) | GI50 (DMS-273): > 100 µM (inactive) | GI50 (RXF 393): > 100 µM (inactive) | GI50 (SK-MEL-5): > 100 µM (inactive) | GI50 (SK-MEL-2): > 100 µM (inactive) | GI50 (DMS-114): > 100 µM (inactive) | GI50 (HT-29): > 100 µM (inactive) | GI50 (UO-31): > 100 µM (inactive) | GI50 (IGROV-1): > 100 µM (inactive) | GI50 (A498): > 100 µM (inactive) | GI50 (DLD-1): > 100 µM (inactive) | GI50 (U-251): > 100 µM (inactive) | GI50 (SW-620): > 100 µM (inactive) | GI50 (RXF 631): > 100 µM (inactive) | GI50 (Malme-3M): > 100 µM (inactive) | GI50 (SN12C): > 100 µM (inactive) | GI50 (OVCAR-4): > 100 µM (inactive) | GI50 (SNB-78): > 100 µM (inactive) | GI50 (KM12): > 100 µM (inactive) | GI50 (OVCAR-3): > 100 µM (inactive) | GI50 (LOX IMVI): > 100 µM (inactive) | GI50 (LXFL 529): > 100 µM (inactive) | GI50 (SNB-19): > 100 µM (inactive) | GI50 (EKVX): > 100 µM (inactive) | GI50 (TK-10): > 100 µM (inactive) | GI50 (NCI-H460): > 100 µM (inactive) | GI50 (KM-20L2): > 100 µM (inactive)

O=C(NCCS(=O)(=O)N1C(=O)C2CCCN2C(=O)[C@@H]1Cc1ccccc1)OCc1ccccc1 (stereo partly specified)
GI50 (UACC-62): 40 µM (inactive) | GI50 (HCC 2998): 24 µM (inactive) | GI50 (HCT-116): 39.5 µM (inactive) | GI50 (HOP-92): 27.7 µM (inactive) | GI50 (RPMI-8226): 23.3 µM (inactive) | GI50 (OVCAR-5): 70.3 µM (inactive) | GI50 (NCI-H226): 51.8 µM (inactive) | GI50 (HOP-18): > 100 µM (inactive) | GI50 (UACC-257): 48.2 µM (inactive) | GI50 (NCI-H23): 67.6 µM (inactive) | GI50 (HL-60): 24.2 µM (inactive) | GI50 (M14): 36 µM (inactive) | GI50 (OVCAR-8): 69.8 µM (inactive) | GI50 (XF498): 0.838 µM (active) | GI50 (K562): 47.9 µM (inactive) | GI50 (CCRF-CEM): 45.4 µM (inactive) | GI50 (ACHN): 35 µM (inactive) | GI50 (SF-539): 76.6 µM (inactive) | GI50 (SK-MEL-28): 78.3 µM (inactive) | GI50 (HOP-62): 99.8 µM (inactive) | GI50 (COLO 205): 26.2 µM (inactive) | GI50 (SNB-75): 33.3 µM (inactive) | GI50 (NCI-H522): 24.7 µM (inactive) | GI50 (A549): 41.1 µM (inactive) | GI50 (SF-268): 45.6 µM (inactive) | GI50 (SK-OV-3): > 100 µM (inactive) | GI50 (HCT-15): 51.8 µM | GI50 (MOLT-4): 48 µM (inactive) | GI50 (786-0): 78.9 µM (inactive) | GI50 (SF-295): 50 µM (inactive) | GI50 (SR): 57.1 µM (inactive) | GI50 (RXF 393): 38 µM (inactive) | GI50 (SK-MEL-5): 47.4 µM (inactive) | GI50 (DMS-114): 22.4 µM (inactive) | GI50 (HT-29): 42.8 µM (inactive) | GI50 (UO-31): 28.2 µM (inactive) | GI50 (IGROV-1): 72.6 µM (inactive) | GI50 (A498): 25.3 µM (inactive) | GI50 (DLD-1): > 100 µM (inactive) | GI50 (U-251): 55.3 µM (inactive) | GI50 (SW-620): 90.4 µM (inactive) | GI50 (RXF 631): 45.6 µM (inactive) | GI50 (Malme-3M): 74 µM (inactive) | GI50 (SN12C): 52.8 µM (inactive) | GI50 (OVCAR-4): 36.7 µM (inactive) | GI50 (SNB-78): 61.9 µM (inactive) | GI50 (KM12): 44.2 µM (inactive) | GI50 (OVCAR-3): 33.5 µM (inactive) | GI50 (LOX IMVI): 50.6 µM (inactive) | GI50 (LXFL 529): 34 µM (inactive) | GI50 (SNB-19): 44.4 µM (inactive) | GI50 (EKVX): 40.9 µM (inactive) | GI50 (CAKI-1): > 100 µM (inactive) | GI50 (TK-10): 38.1 µM (inactive) | GI50 (NCI-H460): 40.4 µM (inactive) | GI50 (KM-20L2): 45.8 µM (inactive)

COC(=O)C1C=NNC1C(=O)OC (stereo unspecified)
GI50 (UACC-62): > 100 µM (inactive) | GI50 (HCC 2998): > 100 µM (inactive) | GI50 (HCT-116): > 100 µM (inactive) | GI50 (RPMI-8226): > 100 µM (inactive) | GI50 (OVCAR-5): > 100 µM (inactive) | GI50 (NCI-H226): > 100 µM (inactive) | GI50 (HOP-18): > 100 µM (inactive) | GI50 (UACC-257): > 100 µM (inactive) | GI50 (NCI-H23): > 100 µM (inactive) | GI50 (HL-60): > 100 µM (inactive) | GI50 (M14): > 100 µM (inactive) | GI50 (OVCAR-8): > 100 µM (inactive) | GI50 (XF498): > 100 µM (inactive) | GI50 (K562): > 100 µM (inactive) | GI50 (CCRF-CEM): > 100 µM (inactive) | GI50 (ACHN): > 100 µM (inactive) | GI50 (SF-539): > 100 µM (inactive) | GI50 (HOP-62): > 100 µM (inactive) | GI50 (COLO 205): > 100 µM (inactive) | GI50 (SNB-75): > 100 µM (inactive) | GI50 (NCI-H522): > 100 µM (inactive) | GI50 (A549): > 100 µM (inactive) | GI50 (SF-268): > 100 µM (inactive) | GI50 (SK-OV-3): > 100 µM (inactive) | GI50 (M19-MEL): > 100 µM (inactive) | GI50 (HCT-15): > 100 µM | GI50 (MOLT-4): > 100 µM (inactive) | GI50 (786-0): > 100 µM (inactive) | GI50 (SF-295): > 100 µM (inactive) | GI50 (DMS-273): > 100 µM (inactive) | GI50 (RXF 393): > 100 µM (inactive) | GI50 (SK-MEL-5): > 100 µM (inactive) | GI50 (SK-MEL-2): > 100 µM (inactive) | GI50 (DMS-114): > 100 µM (inactive) | GI50 (HT-29): > 100 µM (inactive) | GI50 (UO-31): > 100 µM (inactive) | GI50 (IGROV-1): > 100 µM (inactive) | GI50 (A498): > 100 µM (inactive) | GI50 (U-251): > 100 µM (inactive) | GI50 (SW-620): > 100 µM (inactive) | GI50 (RXF 631): > 100 µM (inactive) | GI50 (Malme-3M): > 100 µM (inactive) | GI50 (SN12C): > 100 µM (inactive) | GI50 (OVCAR-4): > 100 µM (inactive) | GI50 (SNB-78): > 100 µM (inactive) | GI50 (KM12): > 100 µM (inactive) | GI50 (OVCAR-3): > 100 µM (inactive) | GI50 (LOX IMVI): > 100 µM (inactive) | GI50 (LXFL 529): > 100 µM (inactive) | GI50 (SNB-19): 57.3 µM (inactive) | GI50 (EKVX): > 100 µM (inactive) | GI50 (CAKI-1): > 100 µM (inactive) | GI50 (TK-10): > 100 µM (inactive) | GI50 (NCI-H460): > 100 µM (inactive) | GI50 (KM-20L2): > 100 µM (inactive)
